According to patent US9241928B2, “Antimicrobial compounds” (The General Hospital Corporation, priority 2009, dated 2016):

Tests used:
[1] = tested on: MRSA infection in Caenorhabditis elegans; test: MRSA infection assay in C. elegans (liquid); format: in vivo; settings: 6.25 and 12.5 μg/ml, 5 days
Excerpt: To screen/test candidate compounds for their efficacy against Methicillin-resistant Staphylococcus aureus (MRSA) using Caenorhabditis elegans (C. elegans), a liquid high throughput screening assay was developed. In contrast to the Enterococcus faecalis infection assay, where worms are pre-infected with E. faecalis on agar prior to the start of the screening assay and then infected worms are transferred to microtiter plates using the COPAS BioSort robot, the infection of worms with MRSA occurred directly in the liquid medium. This liquid infection protocol with MRSA was developed because the COPAS BioSort, the large particle sorter used to dispense worms into multiwell plates, is a pressurized system that can generate aerosols. Because MRSA is a potentially dangerous pathogen for immune competent individuals, sorting MRSA-infected worms in the COPAS BioSort was deemed to be potentially hazardous.
The MRSA infection assay was carried out by incubating C. elegans with three MRSA strains (i.e., USA100, USA400 and MW2) in 96 or 384-well microtiter plates and assessing whether worms were live or dead after a 5 day incubation.
The MRSA infection assay was performed as follows: Worms were grown on agar using non-pathogenic E. coli as a food source until they reached the L4/young adult stage. A small volume of M9 buffer was added to the agar plates to float worms gently off the food source. The worms were then transferred into a large conical tube and washed 2 times by allowing worms to settle, aspirating the supernatant and adding fresh M9 buffer. 15 worms were then transferred using a COPAS BioSort large particle sorter into a 96-well plate containing […] of M9. […] After the worms were stained for 18 hours, images of the plates were acquired in bright field and red fluorescence channels using a Molecular Devices Discovery-1 or ImageXpress automated microscopy system. The total number of worms was counted in the bright field image and the number of dead animals are determined by positive SYTOX staining. […]

[2] = tested on: C. elegans infected with E. faecalis; test: Automated infection assay for primary compound screening (SYTOX staining, CELLPROFILER); format: in vivo, Caenorhabditis elegans
Method: In general, the area of each well that is SYTOX-positive in the fluorescence image is measured and normalized by the total area occupied by all worms, which is quantified in the bright field image. This typically requires illumination correction to flatten lighting abnormalities, adaptive thresholding, and size- and contrast-based filters and masks to exclude debris and other artifacts. By calculating the ratio of the fluorescent area (which corresponds to the area occupied by dead worms) to the total area occupied by all worms, one can accurately determine the number of dead worms in each well. […] In a well where the worms are rescued by ampicillin treatment, 3 of the 14 worms were dead based on manual scoring. The ratio of the fluorescent area to the area occupied by all worms obtained by the CELLPROFILER analysis is correspondingly low at 0.12.
glp-4(bn2); sek-1 (km4) mutant worms were grown to gravid adult stage. 1,000 worms at the L1 stage were grown for 5.2 days at 15° C. on 9-cm plates of SK agar media spread with a lawn of E. coli strain HB101. Embryos from the gravid adults were isolated by a previously described hypochlorite method (see Tan et al., (1999) Proc. Natl. Acad. Sci. USA 96, 715-720) and hatched at 15° C. for 2 days. Approximately 4,500 of the Ll hatchlings were grown on each 9-cm plate of SK-NS agar (SK media with 62.5 U/ml nystatin and 100 μg/ml streptomycin) and with lawns of E. coli HB101. These worms were grown at 25° C. for 52 hours to generate sterile, young adults.
A culture of E. faecalis MMH594 was grown in BHI broth (BD Difco) with 80 μg/ml kanamycin at 37° C. for 6 hours and 100 μl of the culture were spread onto each 9-cm plate of BHI agar containing 80 μg/mlkanamycin. Lawns of E. faecalis were grown at 25° C. for 16 hours and transferred to 15° C. for 8 hours.
Sterile adult worms were resuspended in M9 buffer and washed twice with M9 in a 1:10 ratio to remove E. coli. 8,000 worms were pipetted onto each lawn of E. faecalis and incubated 15 hours at 15° C. After infection, the worms were resuspended in M9 and used as described below. 384-well plates (Corning #3712) were filled with 55 μl media (see below) using a Thermo Scientific MULTIDROP Combi reagent dispenser. 0.3 μl of a candidate compound in DSMO were pin transferred into each well using a CyBio CYBI-Well vario transfer system. The plates were agitated using an Eppendorf MIXMATE at 1,800 rpm for 15 seconds. Using the Union Biometrica Complex Object Parametric Analyzer and Sorter (COPAS) BIOSORT worm sorter according to manufacturer's protocols, 15 of the infected worms were transferred to each well in a total volume of approximately 15 μl. Total volume per well is 70 μl/well with a final composition of the media being 20% BHI, […], 80 μg/ml kanamycin, 62.5 U/ml nystatin, 1% DMSO, and 19% sheath solution (Union Biometrica Part #300-5101-000). Plates were vortexed for 5 seconds, centrifuged at 1000×g for 10 seconds, and sealed with gas permeable membranes (BREATHEASY Diversified). Plates were placed in a single layer on the top shelves in a 26.3° C. incubator at 85% relative humidity (RH) and incubated without agitation for 5 days.
After 5 days, the bacteria and liquid media in the assay plates were removed as described below. First, the bacteria were re-suspended by shaking on the MIXMATE for 15 seconds at 1,800 rpm, the sealing membrane was removed, and the worms were allowed to settle to the bottom of the wells for 3 minutes. […]

SMILES	survival of MRSA-infected worms (FIG. 4) [1]	curing activity in the primary screen ([2]; primary screen)	retest in secondary screen ([2]; secondary experiment)
NNc1ccc2c(Cl)cc(Cl)c(O)c2n1 [Compound 11]	resulted in survival of MRSA-infected worms		
Cc1ccc(Nc2nc(N)c3ccccc3n2)cc1Cl [Compound 26]		cured infected C. elegans	did not re-test
